Experimental data: PMC10892288, “Early Stage Preclinical Formulation Strategies to Alter the Pharmacokinetic Profile of Two Small Molecule Therapeutics” (Pharmaceuticals, 2024)
In brackets after ≈: the same amount, converted by molar mass.

Legend:
[1] = Permeability (physiochemical properties); assay type: in vitro ADME
[2] = Water solubility (physiochemical properties); assay type: physicochemical; settings: water
[3] = Mouse PK of G7883, IP in MCT vehicle; assay type: in vivo, female NSG mice; settings: for AUC(0-t) / Cmax / Tmax / half-life: female, NSG, plasma; for half-life: ip
Procedure: A total of 0.6% w/v Methylcellulose, 0.2% w/v Tween 80 in water (MCT) was prepared by slowly adding Methylcellulose (Methylocel A15 LV; CAS 9004-67-5, Part ID: 64605-500G-F 27.5-31.5% Methoxyl basis, Sigma-Aldrich, St. Louis, MO, USA) in small portions to prevent clumping while stirring into water at 70–80 °C. Once a homogeneous suspension formed, Tween 80 (Polysorbate 80; CAS#9005-65-6 (Polyoxyethylene (20) Sorbitan Monooleate; Tween 80) Part ID: PO138, Spectrum Chemical, New Brunswick, NJ, USA) was added and stirred until fully dissolved. Vehicle was filtered through 0.22 µm PES (Corning REF no. 431098) prior to adding to the compound for dosing. Respective compound was added based on the target concentration to the MCT vehicle and stirred at 35 °C until the power was well-dispersed. Formulations were homogenized through a polytron homogenizer and then sonicated in a water bath sonicator until a homogeneous suspension was achieved.
G7883 was dosed in three female NSG mice in-house with body weight ranging from 20 to 25 g. Three mice were given an IP dose of G7883 formulated in the MCT vehicle at 50 mpk and 150 mpk with a 5 mL/kg dosing volume. A total of 10 µL of blood was collected serially at 0.25, 0.5, 1, 3, 7, and 24 h post-dose and diluted in 40 µL of the potassium K2EDTA water. The frozen blood samples were stored at −70 °C or lower until analysis.
All plasma and cell media concentrations of G7883 and G6893 were determined using liquid chromatography–tandem mass spectrometry after protein precipitation with acetonitrile and injection of the supernatant onto the column (Waters ACQUITY UPLC BEH C18 1.7 μm, 2.1 × 50 mm for G7883 and G6893). The aqueous mobile phase was 0.1% formic acid, 2 mM ammonium formate in water/acetonitrile (v:v, 95:5), and the organic mobile phase was 0.1% formic acid, 2 mM ammonium formate in acetonitrile/water (v:v, 95:5). An AB Sciex API 4000 Triple Quad instrument was used for detecting G7883 and G6893 (Figure S2). The electrospray ionization source in both columns was operated in the positive ion and multiple reaction monitoring (MRM) detection modes. The MRM transitions for G7883 and G6893 were m/z 462.2 (Q1) and 253.10 (Q3) and m/z 454.2 (Q1) and 325.9 (Q3), respectively. The dynamic range of both assays was 0.50–50.0 ng/mL, and the total run time was 1.6 min. The lower limit of quantitation of the assay was […], and the dilution quality control concentration was set at 10 ng/mL with acceptance criteria for accuracy and precision of 25%.
All plasma and cell media concentrations of G7883 were determined using liquid chromatography–tandem mass spectrometry after protein precipitation with acetonitrile and injection of the supernatant onto the column (Phenomenex Kinetex XB-C18, 30 × 2.1 mm, 2.6 µm). The aqueous mobile phase was 10 mM of ammonium formate in water, and the organic mobile phase was 0.1% formic acid in acetonitrile. An AB Sciex API 5500 Triple Quad instrument was used for detecting G7883. The electrospray ionization source in both columns was operated in the positive ion and MRM detection modes. The MRM transitions for G7883 were m/z 462.2 (Q1) and 253.10 (Q3), respectively. The dynamic range of the assay was 0.50–50.0 ng/mL, and the total run time was 2 min. The lower limit of quantitation of the assay was […], and the dilution quality control concentration was set at 10 ng/mL with acceptance criteria for accuracy and precision of 25%.

[4] = Vehicle screening for solution or suspension formulations; assay type: physicochemical
Procedure: Based on the target concentration, G7883 was screened at 3.3 mg/mL in three different vehicles of 100%PEG400, 10%DMSO in 90%PEG400, and 20%DMSO in 80%PEG400 to generate a stable solution. […] A total of 50% DMSO is the maximum amount compatible with the iPRECIO pump system. Based on the target concentration, G6893 was screened at 5 mg/mL in four different vehicles as follows: 100% PEG400, 20% DMSO in 80% PEG400, 20% DMA and 40% PG in 40% PEG400, and 10% EtOH and 20% HPbCD in 70% water at pH 4.5. G6893 achieved a solution at the target concentration of 5 mg/mL in 100% PEG400 and maintained a solution without precipitation after dilution in PBS buffer.
G7883 was screened in different oil vehicles including corn, coconut, paraffin, soybean, and sunflower oil.

[5] = 50 mg/kg, IP 50 mpk, MCT vehicle, mean
[6] = 150 mg/kg, IP 150 mpk, MCT vehicle, mean

permeability (in words) [1]: moderate permeability | Papp ([1]; not told): 5.79 ×10⁻⁶ cm/s | solubility [2]: 85 µg/mL (≈ 170 µM) | increase of AUC coverage, IP versus PO ([3]; IP 150 mpk compared with PO 250 mpk): approximately 10 fold | t1/2 ([3]; IP 150 mpk, MCT vehicle, mean, 150 mg/kg): 1.53 h | AUC(0-t) [3, 5]: 31.2 µM·h | Cmax [3, 5]: 23.9 µM | Tmax [3, 5]: 1 h | AUC(0-t) [3, 6]: 217 µM·h | Cmax [3, 6]: 69.2 µM | Tmax [3, 6]: 1 h | half-life [3, 5]: 0.895 h | half-life [3, 6]: 1.5 h | concentration at which a solution was achieved ([4]; 20%DMSO in 80%PEG400): ≥ 3300 µg/mL | solubility in oil vehicle (in words) ([4]; sunflower oil): moderate solubility
SMILES: Cc1nccnc1-c1nn2c(=O)cc(-c3ccc(C4CCCCC4)cc3)[nH]c2c1C(=O)N1CC(CF)C1 [G7883, 5-(4-cyclohexylphenyl)-3-[3-(fluoromethyl)azetidine-1-carbonyl]-2-(3-methylpyrazin-2-yl)-4H-pyrazolo[1,5-a]pyrimidin-7-one]
